Results on six molecules are retold here after the supplement of paper PMC12698765.

Test [1] deals with 409B2 hiPSC (iCRISPR Cas9, FRMD7 editing). Put plainly: cell survival relative to solvent control (fold (ratio to mock)); higher = more surviving cells. As to the method: (§1)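 Subset screen of 55 drugs tested at 5 concentrations around the effective screening dose, in 409B2 iCRISPR Cas9 hiPSCs editing FRMD7 with a ssDNA donor. Drugs were applied for 24 h. Viability was read by resazurin and editing outcomes by amplicon sequencing (HDR, NHEJ <2 bp microhomology, MMEJ ≥2 bp microhomology). Values are relative to solvent mock controls; two biological replicates.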

Test [2] shares this test system. Nature of the test: HDR (precise edit) frequency relative to solvent control (fold (ratio to mock)); higher = more homology-directed repair outcomes. As to the method: as §1
For test [3] the test system is unchanged. Put plainly: MMEJ-attributed deletion frequency relative to solvent control (fold (ratio to mock)); higher = more MMEJ outcomes. The method, then:
as §1

Test [4] has the same test system. Nature of the test: NHEJ-attributed indel frequency relative to solvent control (fold (ratio to mock)); higher = more NHEJ outcomes. The method, then: as §1

Where a name gives a salt, the structure may show the parent alone. ± gives the standard deviation of the averaged measurements.

As to `NS(=O)(=O)c1ccccc1` [Benzenesulfonamide] (in DMSO), the cell survival in test [1] (20 nM) was 0.86; in test [1] (50 nM), 1.22; in test [1] (100 nM) it was 1.05; in test [1] (200 nM), 1.13; in test [1] (500 nM), 1.17. Besides, the HDR in test [2] (20 nM) stood at 1.14 ± 0.063; in test [2] (50 nM) it was 1.08 ± 0.053; in test [2] (100 nM) it was 1.02 ± 0.038; in test [2] (200 nM) it was 1.1 ± 0.048; in test [2] (500 nM) it was 1.06 ± 0.046. Further, the MMEJ-attributed deletion frequency in test [3] (20 nM) turned out to be 0.855 ± 0.14; in test [3] (50 nM) it was 0.92339 ± 0.00028; in test [3] (100 nM) it was 1.05 ± 0.23; in test [3] (200 nM), 0.912 ± 0.08; in test [3] (500 nM), 0.962 ± 0.038. For the same molecule, the NHEJ-attributed indel frequency in test [4] (20 nM) worked out at 0.951 ± 0.029; in test [4] (50 nM), 0.974 ± 0.026; in test [4] (100 nM), 0.969 ± 0.028; in test [4] (200 nM), 0.995 ± 0.03; in test [4] (500 nM), 0.989 ± 0.029.

Take `CC(C)(c1ccc(O)cc1)c1ccc(O)cc1` [Bisphenol A] (in DMSO): the cell survival came out at 1.02 in test [1] (20 nM); 1.14 in test [1] (50 nM); 0.953 in test [1] (100 nM); 1.22 in test [1] (200 nM); 1.14 in test [1] (500 nM). Besides, the HDR in test [2] (20 nM) is 1.025 ± 0.0061; in test [2] (50 nM) it was 1.01 ± 0.028; in test [2] (100 nM), 1.07 ± 0.025; in test [2] (200 nM) it was 1.023 ± 0.0052; in test [2] (500 nM), 0.983 ± 0.05. For the same molecule, the MMEJ-attributed deletion frequency in test [3] (20 nM) came out at 1.02 ± 0.062; in test [3] (50 nM), 0.8949 ± 0.0088; in test [3] (100 nM), 0.974 ± 0.23; in test [3] (200 nM), 0.965 ± 0.066; in test [3] (500 nM) it was 1.01 ± 0.15. Moreover, the NHEJ-attributed indel frequency in test [4] (20 nM) stood at 1 ± 0.011; in test [4] (50 nM), 1.01 ± 0.014; in test [4] (100 nM), 1.01 ± 0.045; in test [4] (200 nM), 1.015 ± 0.0024; in test [4] (500 nM) it was 1.02 ± 0.051.

On to `Nc1c(CC(=O)O)cccc1C(=O)c1ccc(Br)cc1` [Bromfenac Sodium] (in DMSO), for which the cell survival came to 1.06 in test [1] (200 nM); 1.2 in test [1] (500 nM); 0.983 in test [1] (1000 nM); 1.04 in test [1] (2000 nM); 1.09 in test [1] (5000 nM). Also, the HDR in test [2] (200 nM) worked out at 1.09 ± 0.065; in test [2] (500 nM), 1.09 ± 0.07; in test [2] (1000 nM) it was 1.11 ± 0.058; in test [2] (2000 nM), 1.05 ± 0.025; in test [2] (5000 nM) it was 1.11 ± 0.053. In addition, the MMEJ-attributed deletion frequency in test [3] (200 nM) worked out at 0.866 ± 0.12; in test [3] (500 nM), 0.944 ± 0.072; in test [3] (1000 nM), 0.811 ± 0.094; in test [3] (2000 nM), 0.89 ± 0.033; in test [3] (5000 nM), 0.976 ± 0.09. In addition, the NHEJ-attributed indel frequency in test [4] (200 nM) is 0.984 ± 0.026; in test [4] (500 nM), 0.957 ± 0.032; in test [4] (1000 nM), 0.984 ± 0.016; in test [4] (2000 nM), 1.02 ± 0.022; in test [4] (5000 nM), 0.975 ± 0.044.

Consider `N=C(NCCCCCCNC(=N)NC(=N)Nc1ccc(Cl)cc1)NC(=N)Nc1ccc(Cl)cc1` [Chlorhexidine HCl] (in DMSO), for which the cell survival in test [1] (200 nM) amounted to 1.04; in test [1] (500 nM) it was 1.24; in test [1] (1000 nM), 1.02; in test [1] (2000 nM), 1.03; in test [1] (5000 nM) it was 0.0831. In addition, the HDR in test [2] (200 nM) was determined as 1.06 ± 0.051; in test [2] (500 nM), 1.09 ± 0.038; in test [2] (1000 nM), 1 ± 0.044; in test [2] (2000 nM), 0.874 ± 0.023; in test [2] (5000 nM), 0.294 ± 0.063. For the same molecule, the MMEJ-attributed deletion frequency was determined as 0.966 ± 0.067 in test [3] (200 nM); 0.8989 ± 0.0017 in test [3] (500 nM); 0.994 ± 0.067 in test [3] (1000 nM); 1.07 ± 0.082 in test [3] (2000 nM); 0.946 ± 0.12 in test [3] (5000 nM). Further, the NHEJ-attributed indel frequency in test [4] (200 nM) came out at 0.973 ± 0.014; in test [4] (500 nM), 0.995 ± 0.021; in test [4] (1000 nM), 0.997 ± 0.011; in test [4] (2000 nM), 1.05 ± 0.043; in test [4] (5000 nM), 0.6546 ± 0.0051.

In the case of `Nc1ccn(C[C@@H](CO)OCP(=O)(O)O)c(=O)n1` [Cidofovir] (in H2O), the cell survival turned out to be 0.624 in test [1] (2000 nM); 0.548 in test [1] (5000 nM); 0.333 in test [1] (10000 nM); 0.167 in test [1] (20000 nM); 0.863 in test [1] (50000 nM). The HDR in test [2] (2000 nM) came to 1.06 ± 0.083; in test [2] (5000 nM) it was 0.9 ± 0.055; in test [2] (10000 nM), 0.85 ± 0.081; in test [2] (20000 nM) it was 0.574 ± 0.012; in test [2] (50000 nM), 1.01. Moreover, the MMEJ-attributed deletion frequency in test [3] (2000 nM) amounted to 0.789 ± 0.08; in test [3] (5000 nM), 0.881 ± 0.029; in test [3] (10000 nM) it was 0.924 ± 0.35; in test [3] (20000 nM) it was 0.727 ± 0.12; in test [3] (50000 nM), 0.968. In addition, the NHEJ-attributed indel frequency in test [4] (2000 nM) stood at 0.843 ± 0.058; in test [4] (5000 nM), 0.835 ± 0.019; in test [4] (10000 nM), 0.862 ± 0.049; in test [4] (20000 nM) it was 0.736 ± 0.051; in test [4] (50000 nM) it was 0.988.

As for `CC(C)/N=c1\cc2n(-c3ccc(Cl)cc3)c3ccccc3nc-2cc1Nc1ccc(Cl)cc1` [Clofazimine] (in DMSO), the cell survival in test [1] (200 nM) was 0.955; in test [1] (500 nM) it was 1.06; in test [1] (1000 nM), 0.752; in test [1] (2000 nM), 0.597; in test [1] (5000 nM) it was 0.252. Besides, the HDR in test [2] (200 nM) worked out at 0.942 ± 0.032; in test [2] (500 nM), 0.91 ± 0.019; in test [2] (1000 nM), 0.912 ± 0.042; in test [2] (2000 nM) it was 0.794 ± 0.029; in test [2] (5000 nM), 0.772 ± 0.058. Also, the MMEJ-attributed deletion frequency in test [3] (200 nM) came to 1.07 ± 0.15; in test [3] (500 nM), 0.967 ± 0.077; in test [3] (1000 nM) it was 0.949 ± 0.022; in test [3] (2000 nM), 0.957 ± 0.097; in test [3] (5000 nM), 0.791 ± 0.14. For the same molecule, the NHEJ-attributed indel frequency in test [4] (200 nM) stood at 1.01 ± 0.022; in test [4] (500 nM) it was 1.027 ± 0.004; in test [4] (1000 nM), 0.999 ± 0.017; in test [4] (2000 nM) it was 1.028 ± 0.0037; in test [4] (5000 nM) it was 0.974 ± 0.014.
